Activity calls are given as the source filed them. The rule behind the calls is not given here.
What was measured:
[1] = biological target: Cholinesterase (Equus caballus) (UniProt P81908); test: Inhibition of equine serum BuChE at 100 uM using butyrylthiocholine iodide as substrate by Ellman's colorimetric analysis relative to control
[2] = Octanol/water partition coefficient, log D of compound at pH 7.4 at 1 uM incubated for 2 hrs by LC-MS analysis; format: physicochemical
[3] = biological target: T1, Tyrosine-protein kinase Fyn (Homo sapiens, UniProt P06241); test: Inhibition of basal Fyn activation in hiPSC neural progenitor cells assessed as reduction in pFyn levels in absence of amyloid beta at 10 uM by DAPI staining based immunofluorescence assay; conditions: induced pluripotent stem cell-derived neuron
Target sequence in this assay (P06241 whole entry): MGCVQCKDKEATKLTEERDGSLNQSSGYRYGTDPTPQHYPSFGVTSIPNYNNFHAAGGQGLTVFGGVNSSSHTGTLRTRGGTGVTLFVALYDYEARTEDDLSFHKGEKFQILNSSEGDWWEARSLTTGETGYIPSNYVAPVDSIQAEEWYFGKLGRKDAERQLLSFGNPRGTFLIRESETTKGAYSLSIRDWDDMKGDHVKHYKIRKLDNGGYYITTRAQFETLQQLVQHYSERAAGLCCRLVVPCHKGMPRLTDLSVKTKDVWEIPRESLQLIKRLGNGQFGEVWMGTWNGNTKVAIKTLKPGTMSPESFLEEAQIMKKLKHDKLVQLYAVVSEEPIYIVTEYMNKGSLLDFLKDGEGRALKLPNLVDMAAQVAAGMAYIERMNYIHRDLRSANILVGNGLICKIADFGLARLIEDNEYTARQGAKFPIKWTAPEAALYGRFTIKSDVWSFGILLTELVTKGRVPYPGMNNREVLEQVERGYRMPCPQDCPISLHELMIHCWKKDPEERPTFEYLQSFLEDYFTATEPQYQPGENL

[4] = biological target: Acetylcholinesterase (Electrophorus electricus) (UniProt O42275); test: Inhibition of electric eel AChE at 100 uM using acetylthiocholine iodide as substrate by Ellman's colorimetric analysis relative to control
Sequence of Acetylcholinesterase (Electrophorus electricus) (O42275 24-633 limits assumed): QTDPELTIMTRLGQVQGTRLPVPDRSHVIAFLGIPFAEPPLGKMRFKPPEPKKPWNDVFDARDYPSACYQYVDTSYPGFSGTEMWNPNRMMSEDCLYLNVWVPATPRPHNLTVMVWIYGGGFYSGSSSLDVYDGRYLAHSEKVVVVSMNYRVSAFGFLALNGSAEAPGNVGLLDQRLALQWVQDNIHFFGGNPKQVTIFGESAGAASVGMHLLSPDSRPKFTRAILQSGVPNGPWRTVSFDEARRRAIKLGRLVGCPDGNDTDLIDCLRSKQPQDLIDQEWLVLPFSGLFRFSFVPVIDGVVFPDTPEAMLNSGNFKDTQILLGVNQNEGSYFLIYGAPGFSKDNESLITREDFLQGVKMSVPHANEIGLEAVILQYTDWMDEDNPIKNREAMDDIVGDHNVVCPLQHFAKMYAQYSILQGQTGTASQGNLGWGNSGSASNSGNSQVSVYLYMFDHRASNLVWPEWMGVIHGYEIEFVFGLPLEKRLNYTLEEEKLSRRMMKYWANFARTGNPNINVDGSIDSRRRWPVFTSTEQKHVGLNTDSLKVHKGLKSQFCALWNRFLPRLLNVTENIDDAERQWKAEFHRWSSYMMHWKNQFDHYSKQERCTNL

[5] = Cytotoxicity against hiPSC neural cells assessed as reduction in cell viability at 10 uM incubated for 24 hrs by MTT assay; format: cell-based; conditions: human, induced pluripotent stem cell-derived neuron
[6] = Membrane retention of compound at pH 7.4 incubated for 16 hrs by PAMPA assay; format: ADME; conditions: pH 7.4, 16 h
[7] = biological target: Amyloid-beta precursor protein (Homo sapiens) (UniProt P05067); test: Inhibition of human amyloid beta (1 to 42) self-induced aggregation at 50 uM by Thioflavin T based fluorometric assay
Sequence of Amyloid-beta precursor protein (Homo sapiens) (P05067 whole entry): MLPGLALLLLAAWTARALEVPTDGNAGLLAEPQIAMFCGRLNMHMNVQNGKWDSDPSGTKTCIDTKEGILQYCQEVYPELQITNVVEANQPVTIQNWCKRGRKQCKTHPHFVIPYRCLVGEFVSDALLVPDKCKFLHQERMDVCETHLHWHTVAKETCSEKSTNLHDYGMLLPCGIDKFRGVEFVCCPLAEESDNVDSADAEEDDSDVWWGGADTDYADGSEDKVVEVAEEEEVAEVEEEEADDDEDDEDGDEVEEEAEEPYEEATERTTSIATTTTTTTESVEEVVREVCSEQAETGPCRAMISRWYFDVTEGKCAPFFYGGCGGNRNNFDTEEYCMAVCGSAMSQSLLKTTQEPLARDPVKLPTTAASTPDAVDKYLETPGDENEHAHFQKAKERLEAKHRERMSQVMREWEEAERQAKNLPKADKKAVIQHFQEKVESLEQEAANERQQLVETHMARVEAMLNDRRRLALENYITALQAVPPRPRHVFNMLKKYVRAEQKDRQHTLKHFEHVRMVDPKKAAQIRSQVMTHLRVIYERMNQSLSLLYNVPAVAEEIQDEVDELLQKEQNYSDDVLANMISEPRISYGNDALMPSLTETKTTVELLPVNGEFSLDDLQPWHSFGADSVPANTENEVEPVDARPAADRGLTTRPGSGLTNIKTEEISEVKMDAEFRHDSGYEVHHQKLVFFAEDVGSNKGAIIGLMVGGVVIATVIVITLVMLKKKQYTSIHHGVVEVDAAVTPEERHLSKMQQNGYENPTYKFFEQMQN

[8] = Membrane retention of compound assessed as partial membrane retention at pH 7.4 by LC-MS based PAMPA assay; format: ADME
[9] = Aqueous solubility of the compound in 5 % DMSO at 50 to 100 uM incubated for 2 hrs; format: physicochemical; conditions: buffer, dose 50-100 µM
[10] = biological target: T1, Tyrosine-protein kinase Fyn; test: Inhibition of amyloid beta-induced Fyn activation in hiPSC neural cells assessed as reduction in tau phosphorylation at Thr 181 residue at 10 uM measured after 4 days by DAPI/Alexa fluor 594 staining based immunocytochemistry analysis; conditions: Induced pluripotent stem cell-derived neuron, time 4.0 day
Target sequence in this assay (P06241 2-537 limits assumed): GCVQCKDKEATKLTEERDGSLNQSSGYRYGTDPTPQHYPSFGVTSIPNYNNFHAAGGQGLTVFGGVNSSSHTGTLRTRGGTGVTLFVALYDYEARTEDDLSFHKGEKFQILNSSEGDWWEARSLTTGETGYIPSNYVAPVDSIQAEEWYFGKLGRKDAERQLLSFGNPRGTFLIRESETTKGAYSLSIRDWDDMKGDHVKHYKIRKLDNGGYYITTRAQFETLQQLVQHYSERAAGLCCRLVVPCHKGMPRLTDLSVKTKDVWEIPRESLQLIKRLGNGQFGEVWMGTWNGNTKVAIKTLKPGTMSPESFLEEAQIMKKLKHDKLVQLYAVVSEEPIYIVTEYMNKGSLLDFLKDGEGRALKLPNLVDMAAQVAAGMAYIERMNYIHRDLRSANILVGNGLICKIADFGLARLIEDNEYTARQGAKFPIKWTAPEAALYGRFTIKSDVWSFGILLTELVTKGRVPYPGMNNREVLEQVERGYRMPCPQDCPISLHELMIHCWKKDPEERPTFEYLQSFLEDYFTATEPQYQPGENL

[11] = buffer, 100 µM
[12] = biological target: T1, Tyrosine-protein kinase Fyn; test: Inhibition of natural amyloid beta (1 to 42) -induced Fyn activation in hiPSC neural progenitor cells assessed as reduction in Fyn production at 10 uM preincubated fot 45 mins followed by amyloid beta addition and measured after 15 mins by DAPI/Alexa fluor 594 immunostaining based assay; conditions: Induced pluripotent stem cell-derived neuron, time 60.0 min
Target sequence in this assay (P06241 2-537 limits assumed): as above

[13] = Aggregation property of the compound in PBS buffer assessed as aggregate formation at 10 to 100 uM incubated for 2 hrs by light scattering spectrofluorimetric assay; format: physicochemical; conditions: dose 10-100 µM
[14] = Aggregation property of the compound in PBS buffer at 10 to 100 uM incubated for 2 hrs by UV/Vis double beam spectrophotometric method; format: physicochemical; conditions: dose 10-100 µM
[15] = pampa, pH 7.4, 16 h
[16] = Cytotoxicity against hiPSC neural cells assessed as reduction in cell viability up to 100 uM incubated for 24 hrs by MTT assay; format: cell-based; conditions: human, induced pluripotent stem cell-derived neuron
[17] = biological target: T1, Tyrosine-protein kinase Fyn; test: Inhibition of Fyn activation (unknown origin) by ADP-Glo kinase assay
Target sequence in this assay (P06241 2-537 limits assumed): as above

[18] = Cytotoxicity against hiPSC neural cells assessed as reduction in cell viability up to 50 uM incubated for 24 hrs by MTT assay; format: cell-based; conditions: human, induced pluripotent stem cell-derived neuron
[19] = system: Saccharomyces cerevisiae; test: Competitive inhibition of Saccharomyces cerevisiae alpha-glucosidase at 100 uM using p-nitrophenyl glycosides as substrate measured for 125 secs by spectrophotometry analysis relative to control; conditions: time 125.0 sec
[20] = Competitive inhibition of Saccharomyces cerevisiae alpha-glucosidase assessed as inhibition constant for inhibitor-enzyme complex formation using p-nitrophenyl glycosides as substrate measured for 125 secs by spectrophotometry analysis
[21] = Competitive inhibition of almond beta-glucosidase using p-nitrophenyl glycosides as substrate measured for 125 secs by spectrophotometry analysis; design: species or system Prunus dulcis
[22] = system: Prunus dulcis; test: Competitive inhibition of almond beta-glucosidase at 100 uM using p-nitrophenyl glycosides as substrate measured for 125 secs by spectrophotometry analysis relative to control; conditions: time 125.0 sec
[23] = system: Saccharomyces cerevisiae; test: Uncompetitive inhibition of Saccharomyces cerevisiae alpha-glucosidase at 100 uM using p-nitrophenyl glycosides as substrate measured for 125 secs by spectrophotometry analysis relative to control; conditions: time 125.0 sec
[24] = Uncompetitive inhibition of Saccharomyces cerevisiae alpha-glucosidase assessed as inhibition constant for inhibitor-substrate-enzyme complex formation using p-nitrophenyl glycosides as substrate measured for 125 secs by spectrophotometry analysis

Sequence of Cholinesterase (Equus caballus) (P81908 whole entry): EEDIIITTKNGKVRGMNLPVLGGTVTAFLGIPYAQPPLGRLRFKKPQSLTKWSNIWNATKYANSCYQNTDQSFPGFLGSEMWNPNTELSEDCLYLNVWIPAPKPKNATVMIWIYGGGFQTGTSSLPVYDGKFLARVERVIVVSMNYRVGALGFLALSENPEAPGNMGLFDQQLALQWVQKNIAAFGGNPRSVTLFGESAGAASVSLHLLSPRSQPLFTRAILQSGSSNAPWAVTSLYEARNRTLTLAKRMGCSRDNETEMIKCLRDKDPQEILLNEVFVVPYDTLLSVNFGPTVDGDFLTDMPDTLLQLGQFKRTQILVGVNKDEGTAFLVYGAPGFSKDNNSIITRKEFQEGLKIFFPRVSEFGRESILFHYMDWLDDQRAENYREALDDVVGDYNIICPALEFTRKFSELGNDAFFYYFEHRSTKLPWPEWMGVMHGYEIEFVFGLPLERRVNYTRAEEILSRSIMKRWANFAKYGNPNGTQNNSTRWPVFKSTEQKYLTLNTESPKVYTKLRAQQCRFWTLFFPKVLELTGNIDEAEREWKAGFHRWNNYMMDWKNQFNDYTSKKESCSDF

Structure (SMILES) | inhibition [1] | logD at 2 h, 1 µM [2] | inhibition (INH) [3] | inhibition [4] | Activity [5] | inhibition [7] | inhibition [10] | inhibition [12] | Activity [13] | Activity [14] | further results
COC[C@H]1O[C@@H](c2cc(OC(=O)c3ccccc3)ccc2O)[C@H](OC)[C@@H](OC)[C@@H]1OC | 12% | 3.2 | Not Active | 14% | Non-Toxic |  |  |  |  |  | Drug uptake [6]: 80%
COC[C@H]1O[C@@H](c2ccc(OC(=O)c3ccccc3)c(OC(=O)c3ccccc3)c2)[C@H](OC)[C@@H](OC)[C@@H]1OC | 12% | > 2.5 | Not Active | inactive | Non-Toxic | inactive | Active | Active |  |  | Drug uptake [8]: Active; solubility [9]: Insoluble; solubility [11]: Insoluble; Drug uptake [6]: Active
OC[C@H]1O[C@@H](c2c(O)ccc3ccccc23)[C@H](O)[C@@H](O)[C@@H]1O | 10% |  | Not Active | inactive | Non-Toxic | inactive |  | Active | Not Active | Not Active | 
COC[C@H]1O[C@@H](c2cc(OC(=O)c3ccccc3)ccc2OC(=O)c2ccccc2)[C@H](OC)[C@@H](OC)[C@@H]1OC | 16% | > 2.5 | Not Active | 19% | Non-Toxic |  | Active | Active |  |  | solubility [9]: Insoluble; logPeff [15]: Not Active; solubility [11]: Insoluble
O=C(Oc1ccc(O[C@H]2O[C@H](CO)[C@@H](O)[C@H](O)[C@H]2O)cc1)c1ccccc1 | 10% | 1 | Not Active | inactive | Non-Toxic |  | Active |  |  |  | logPeff [15]: Not Active; Activity [16]: Non-Toxic
O=C(Oc1ccc(O)c([C@@H]2O[C@H](CO)[C@@H](O)[C@H](O)[C@H]2O)c1)c1ccccc1 | inactive | < 0.5 | Not Active | inactive | Non-Toxic | inactive |  | Active | Not Active | Not Active | 
O=C(Cc1ccccc1)c1c(O)cc(O)cc1O |  |  |  |  |  | inactive |  |  |  |  | 
O=C(Cc1ccccc1)Oc1cc(O)cc(O)c1 |  |  |  |  |  | inactive |  |  |  |  | 
COC[C@H]1O[C@@H](c2c(O)cc(O)c(C(C)=O)c2O)[C@H](OC)[C@@H](OC)[C@@H]1OC | 16% | 2.3 | Not Active | inactive | Non-Toxic | inactive | Active | Active | Not Active | Not Active | inhibition [17]: inactive; Activity [18]: Non-Toxic
O=c1c(-c2ccc(O)cc2)coc2c([C@@H]3O[C@H](CO)[C@@H](O)[C@H](O)[C@H]3O)c(O)cc(O)c12 |  | -0.1 |  |  |  |  |  |  |  |  | 
CC(=O)c1c(O)cc(O)c([C@@H]2O[C@H](CO)[C@@H](O)[C@H](O)[C@H]2O)c1O | 15% |  | Not Active | inactive | Non-Toxic |  | Active | Active | Not Active | Not Active | logPeff [15]: Bld; Activity [16]: Non-Toxic
Oc1ccc(OC2O[C@H](COCc3ccccc3)[C@@H](OCc3ccccc3)[C@H](OCc3ccccc3)[C@H]2OCc2ccccc2)cc1 (stereo partly drawn) |  |  |  |  |  | inactive |  |  |  |  | 
O=C(Cc1ccccc1)c1c(O)cc(O)c([C@@H]2O[C@H](CO)[C@@H](O)[C@H](O)[C@H]2O)c1O | 17% |  |  | inactive |  |  |  |  |  |  | 
O=C(Oc1ccccc1O[C@H]1O[C@H](CO)[C@@H](O)[C@H](O)[C@H]1O)c1ccccc1 | 17% | 0.1 | Not Active | 10% | Non-Toxic | inactive | inactive |  | Not Active | Not Active | inhibition [19]: 74%; Ki [20]: 39 µM
COC[C@H]1O[C@@H](c2ccc(O)c(O)c2)[C@H](OC)[C@@H](OC)[C@@H]1OC | 16% | 1.1 | Not Active | 15% | Non-Toxic | inactive |  |  |  |  | 
COC[C@H]1O[C@@H](c2cc(O)ccc2O)[C@H](OC)[C@@H](OC)[C@@H]1OC | 21% |  | Not Active | inactive | Non-Toxic | inactive | Active |  | Not Active | Not Active | inhibition [17]: Active
O=C(Oc1ccc(OC(=O)c2ccccc2)c([C@@H]2O[C@H](CO)[C@@H](O)[C@H](O)[C@H]2O)c1)c1ccccc1 | 21% | 2 | Not Active | inactive | Non-Toxic |  |  |  |  |  | 
COC[C@H]1O[C@@H](c2c(O)ccc3ccccc23)[C@H](OC)[C@@H](OC)[C@@H]1OC | 23% | 2.7 | Not Active | inactive | Non-Toxic |  |  |  |  |  | 
O=C(Oc1ccc([C@@H]2O[C@H](CO)[C@@H](O)[C@H](O)[C@H]2O)cc1OC(=O)c1ccccc1)c1ccccc1 | 39% |  | Not Active | inactive | Non-Toxic | inactive | Active | Active | Not Active | Not Active | Activity [16]: Non-Toxic
CC(=O)N1CCN(c2ccc(OCC3COC(Cn4ccnc4)(c4ccc(Cl)cc4Cl)O3)cc2)CC1 (stereo not drawn) [KETOCONAZOLE] |  |  |  |  |  |  |  |  | Not Active |  | 
COC[C@H]1O[C@@H](c2c(O)cc(O)cc2O)[C@H](OC)[C@@H](OC)[C@@H]1OC | 10% | 1.6 | Not Active | inactive | Non-Toxic |  | inactive | Active | Not Active | Not Active | inhibition [17]: Active
O=c1c(-c2ccc(O)cc2)coc2cc(O)cc(O)c12 [GENISTEIN] | 41% | 3.3 |  | 12% | Non-Toxic |  | Active | Active |  |  | Ki [21]: 66 µM; inhibition [22]: 44%; inhibition [23]: 84%; Ki [24]: 12 µM

Reference: ChEMBL document CHEMBL4665828, “Glucosylpolyphenols as Inhibitors of Aβ-Induced Fyn Kinase Activation and Tau Phosphorylation: Synthesis, Membrane Permeability, and Exploratory Target Assessment within the Scope of Type 2 Diabetes and Alzheimer's Disease” (J Med Chem, 2020)
